Tests used:
Format in all cases: functional, cell-based
[1] = system: ACHN; assay: Compound was tested for its effect on the proliferation of ACHN human kidney adenocarcinoma
[2] = system: C8166; assay: Compound was tested for its effect on the proliferation of C8166 cells expressing the TAT gene of HTLV-1.; details: Homo sapiens
[3] = system: CHO-K1; assay: Compound was tested for its effect on the proliferation of CHO-K1 Chinese hamster ovary cell line.; details: Cricetulus griseus
[4] = system: CCRF-SB; assay: Compound was tested for its effect on the proliferation of CCRF-SB human lymphoblastic B-leukemia cell line.
[5] = system: CCRF-CEM; assay: Compound was tested for its effect on the proliferation of CCRF-CEM human lymphoblastic T-leukemia cell line
[6] = system: HEL 299; assay: Compound was tested for its effect on the proliferation of […] human diploid embryonal lung cell line.
[7] = system: MT4; assay: Compound was tested for its effect on the proliferation of MT-4 cells expressing the TAT gene of HTLV-1.; details: Homo sapiens
[8] = system: L1210; assay: Compound was tested for its effect on the proliferation of L1210 murine leukemia cell line.; details: Mus musculus
[9] = system: MOLT-4; assay: Compound was tested for its effect on the proliferation of MOLT-4 human lymphoblastic T-leukemia cell line.
[10] = system: Raji; assay: Compound was tested for its effect on the proliferation of RAJI burkitt lymphoma cell line.; details: Homo sapiens
[11] = system: WIL2-NS; assay: Compound was tested for its effect on the proliferation of WIL-2-NS cell line.; details: Homo sapiens
[12] = system: MT4; assay: Dose required to achieve 50% protection of MT-4 cells against the cytopathic effect of HIV-1; details: Homo sapiens
[13] = system: HT-29; assay: Compound was tested for its effect on the proliferation of HT-29 human colon adenocarcinoma.
[14] = system: CCRF-CEM; assay: Compound was tested for its effect on the proliferation of CCRF-CEM human lymphoblastic T-leukemia cell line.

| SMILES | IC50 [1] [µM] | IC50 [2] [µM] | IC50 [3] [µM] | IC50 [4] [µM] | IC50 [5] [µM] | IC50 [6] [µM] | IC50 [7] [µM] | IC50 [8] [µM] | IC50 [9] [µM] | IC50 [10] [µM] | IC50 [11] [µM] | EC50 [12] [µM] | IC50 [13] [µM] | IC50 [14] [µM] |
| --- | --- | --- | --- | --- | --- | --- | --- | --- | --- | --- | --- | --- | --- | --- |
| NC(=O)c1ncn([C@@H]2O[C@H](CO)[C@@H](O)[C@H]2O)n1 [RIBAVIRIN] | > 100 | > 100 | 50 | > 100 | 19 | 45 | 23 | 16.6 | 5.7 | 56 | > 100 |  |  |  |
| Cc1cn([C@H]2C[C@H](N=[N+]=[N-])[C@@H](CO)O2)c(=O)[nH]c1=O [ZIDOVUDINE] |  |  |  |  |  |  |  |  |  |  |  | 0.002 |  |  |
| COC(=O)c1nn([C@@H]2O[C@H](CO)[C@@H](O)[C@H]2O)cc1I | 3.6 | 0.2 | 7.9 | 0.9 | 1.5 | 4 | 1.6 | 2.4 | 0.9 | 0.2 | 1.6 |  | 2.8 |  |
| COC(=O)c1csc([C@@H]2O[C@H](CO)[C@@H](O)[C@H]2O)n1 | > 300 |  | > 300 | > 300 | > 300 | > 300 | > 300 | > 300 | > 300 | > 300 | > 300 |  | > 300 |  |
| COc1cccc2c1C(=O)c1c(O)c3c(c(O)c1C2=O)C[C@@](O)(C(=O)CO)C[C@@H]3O[C@H]1C[C@H](N)[C@H](O)[C@H](C)O1 [DOXORUBICIN] | 0.7 | 0.05 | 1.2 | 0.05 | 0.08 | 1.7 | 0.05 | 0.9 | 0.05 | 0.1 | 0.2 |  | 1.1 |  |
| NC(=O)c1nn([C@@H]2O[C@H](CO)[C@@H](O)[C@H]2O)cc1I | > 300 | 4 | > 300 | > 300 |  | > 300 | 2.1 | > 300 | 9.1 | > 300 | > 300 |  | > 300 | 2.4 |
| COC(=O)c1ncn([C@@H]2O[C@H](CO)[C@@H](O)[C@H]2O)n1 | > 300 |  | > 300 | > 300 | > 300 | > 300 | > 300 | > 300 | > 300 | > 300 | > 300 |  | > 300 |  |
| O=C(O)c1nn([C@@H]2O[C@H](CO)[C@@H](O)[C@H]2O)cc1I | > 300 | > 300 | > 300 | > 300 | > 300 | > 300 | > 300 | > 300 | > 300 | > 300 | > 300 |  | > 300 |  |
| C#Cc1cn([C@@H]2O[C@H](CO)[C@@H](O)[C@H]2O)nc1C(N)=O | 287 | 22 | > 300 | > 300 | > 300 | 235 | > 300 | > 300 | > 300 | > 300 | > 300 |  | > 300 |  |
| COC(=O)c1nn([C@@H]2O[C@H](CO)[C@@H](O)[C@H]2O)cc1I.OC[C@@H]1CC[C@H](n2cnc3c(O)ncnc32)O1 |  |  |  |  |  |  |  |  |  |  |  | 3 |  |  |
| CCCCOC(=O)c1nn([C@@H]2O[C@H](CO)[C@@H](O)[C@H]2O)cc1I |  | 15 | 37 | 21 | 19 | 40 | 25 |  | 16 | 17 | 23 |  | 25 |  |
| COC(=O)c1nn([C@@H]2O[C@H](CO)[C@@H](O)[C@H]2O)cc1I.Cc1cn([C@H]2C[C@H](N=[N+]=[N-])[C@@H](CO)O2)c(=O)[nH]c1=O |  |  |  |  |  |  |  |  |  |  |  | 0.005 |  |  |
| Cc1noc(-c2nn([C@@H]3O[C@H](CO)[C@@H](O)[C@H]3O)cc2I)n1 | 6.2 |  | 8.5 | 2.8 | 2.6 | 7.9 | 2.3 |  | 3 |  | 3.5 |  | 4.8 |  |

— ChEMBL document CHEMBL1151497, “Design, synthesis and antiproliferative activity of methyl 4-Iodo-1--D-ribofuranosyl-pyrazole-3-carboxylate and related compounds” (Bioorg Med Chem Lett, 1996)
